Columns and labels:
[1] = molecular target: Beta5 (Homo sapiens, UniProt P20618+P28074); test: Determination of Beta5 activity (fluorescence intensity assay, Suc-LLVY-AMC); assay type: biochemical; settings: for IC50: purified human constitutive proteasome
Experimental: Determination of Beta5 Activity:
Measurement of Beta5 inhibition is performed in 384 well format based on fluorescence intensity assay.
(§1) Purified human constitutive proteasome (1.25 nM) and serial diluted compounds in DMSO (range of concentrations from 30 μM to 15 μM) or controls are incubated for 20 minutes or 120 minutes (long incubation) at 25° C. in assay buffer containing 50 mM Tris pH 7.4, 0.03% SDS, 1 mM EDTA and 1% DMSO. The reaction is initiated by the addition of the fluorogenic peptide substrate, Suc-LLVY-AMC (Bachem 1-1395), at a concentration of 40 μM. After 60 minutes of incubation at 37° C., fluorescence intensity is measured at λex=350 nm and λem=450 nm with a fluorescence reader (Perkin Elmer Envision reader or equivalent).
(§2) Unless indicated otherwise the results are obtained after incubation for 20 minutes.

[2] = molecular target: LMP7 (Homo sapiens, UniProt P20618+P28062); test: Determination of LMP7 activity (fluorescence intensity assay, Suc-LLVY-AMC); assay type: biochemical; settings: purified human immunoproteasome
Experimental: Determination of LMP7 Activity:
Measurement of LMP7 inhibition is performed in 384 well format based on fluorescence intensity assay.
as §1, with “immunoproteasome (0.25” for “constitutive proteasome (1.25”, “pM)” for “μM)”
as §2

[3] = molecular target: LMP7 subunit of the immunoproteasome (Homo sapiens, UniProt P20618+P28062); settings: Singh et al., Br. J. Hematology 152(2): 155-163; cited from earlier work

Row | Selectivity LMP7 vs Beta5 ([1]; incubation for 20 minutes) | IC50 ([1]; incubation for 20 minutes) [nM] | IC50 ([2]; incubation for 20 minutes) [nM] | Selectivity LMP7 vs Beta5 ([1]; long incubation (120 min)) | IC50 ([1]; long incubation (120 min)) [nM] | IC50 ([2]; long incubation (120 min)) [nM] | Structure (SMILES) | selectivity for the LMP7 subunit of the immunoproteasome [3] [fold]
1 | +++ (30 ≤ Selectivity < 50) | 50 to 500 | < 50 |  |  |  | O=C(CCN1CCCCC1=O)N[C@@H](Cc1coc2ccccc12)B(O)O [Compound 24, [(1R)-2-(benzofuran-3-yl)-1-[3-(2-oxo-1-piperidyl)propanoylamino]-ethyl]boronic acid] | 
2 | ++ (10 ≤ Selectivity < 30) | 50 to 500 | < 50 |  |  |  | O=C(CCN1CC(c2ccccc2)CC1=O)N[C@@H](Cc1ccccc1)B(O)O (stereo partly drawn) [Compound 12, [(1R)-1-[3-(2-oxo-4-phenyl-pyrrolidin-1-yl)propanoylamino]-2-phenyl-ethyl]boronic acid] | 
3 | +++ (30 ≤ Selectivity < 50) | 500 to 5000 | < 50 |  |  |  | O=C(CCN1CCCC1=O)N[C@H](Cc1ccccc1)B(O)O [Compound 2, [(1S)-1-[3-(2-oxopyrrolidin-1-yl)propaqanoylamino]-2-phenyl-ethyl]-boronic acid] | 
4 | ++ (10 ≤ Selectivity < 30) | 50 to 500 | < 50 |  |  |  | CN1CCN(CCC(=O)N[C@@H](Cc2coc3ccccc23)B(O)O)C(=O)C1 [Compound 35, [(1R)-2-(benzofuran-3-yl)-1-[3-(4-methyl-2-oxo-piperazin-1-yl)propanoylamino]ethyl]boronic acid] | 
5 | +++++ (Selectivity ≥ 70) | 500 to 5000 | < 50 |  |  |  | Cc1ccc(C[C@H](NC(=O)CCN2CCCC2=O)B(O)O)cc1C [Compound 16, [(1R)-2-(3,4-dimethylphenyl)-1-[3-(2-oxopyrrolidin-1-yl)propanoylamino]ethyl]boronic acid] | 
6 | ++ (10 ≤ Selectivity < 30) | 50 to 500 | < 50 |  |  |  | O=C(CCN1CCN(c2ccccc2)C1=O)N[C@@H](Cc1ccc(F)cc1)B(O)O [Compound 14, [(1R)-2-(4-fluorophenyl)-1-[3-(2-oxo-3-phenyl-imidazolidin-1-yl)propanoylamino]ethyl]boronic acid] | 
7 |  |  |  | +++++ (Selectivity ≥ 70) | > 5000 | < 50 | Cc1cccc2c1OC[C@H]2C[C@H](NC(=O)CCN1CCCCC1=O)B(O)O [Compound 40, [(1R)-2-[(3S)-7-methyl-2,3-dihydrobenzofuran-3-yl]-1-[3-(2-oxo-1-piperidyl)propanoylamino]ethyl]boronic acid] | 
8 | ++ (10 ≤ Selectivity < 30) | 500 to 5000 | 50 to 500 |  |  |  | O=C(CCN1CCCCCC1=O)N[C@@H](Cc1ccccc1)B(O)O [Compound 13, [(1R)-1-[3-(2-oxoazepan-1-yl)propanoylamino]-2-phenyl-ethyl]boronic acid] | 
9 | ++ (10 ≤ Selectivity < 30) | 50 to 500 | < 50 |  |  |  | Cc1ccc(C[C@H](NC(=O)CCN2CCCC2=O)B(O)O)cc1 [Compound 4, [(1R)-1-[3-(2-oxopyrrolidin-1-yl)propanoylamino]-2-(p-tolyl)ethyl]-boronic acid] | 
10 | ++ (10 ≤ Selectivity < 30) | 500 to 5000 | 50 to 500 |  |  |  | O=C(CCN1CCCC1=O)N[C@@H](Cc1cccc2ccccc12)B(O)O [Compound 10, [(1R)-2-(1-naphthyl)-1-[3-(2-oxopyrrolidin-1-yl)propanoylamino]ethyl]-boronic acid] | 
11 | +++ (30 ≤ Selectivity < 50) | 500 to 5000 | 50 to 500 |  |  |  | O=C(CCN1CCCCC1=O)N[C@H](Cc1ccccc1)B(O)O [Compound 3, [(1S)-1-[3-(2-oxo-1-piperidyl)propanoylamino]-2-phenyl-ethyl]boronic acid] | 
12 | +++ (30 ≤ Selectivity < 50) | 500 to 5000 | < 50 |  |  |  | O=C(CCN1CCCC1=O)N[C@@H](Cc1ccc2c(c1)OCCO2)B(O)O [Compound 8, [(1R)-2-(2,3-dihydro-1,4-benzodioxin-6-yl)-1-[3-(2-oxopyrrolidin-1-yl)propanoylamino]ethyl]boronic acid] | 
13 | +++ (30 ≤ Selectivity < 50) | 50 to 500 | < 50 |  |  |  | O=C(CCN1CCCOC1=O)N[C@@H](Cc1coc2ccccc12)B(O)O [Compound 30, [(1R)-2-(benzofuran-3-yl)-1-[3-(2-oxo-1,3-oxazinan-3-yl)propanoylamino]ethyl]boronic acid] | 
14 | ++ (10 ≤ Selectivity < 30) | 50 to 500 | < 50 |  |  |  | O=C(CCN1CCCCC1=O)N[C@@H](Cc1ccc2ccccc2c1)B(O)O [Compound 7, [(1R)-2-(2-naphthyl)-1-[3-(2-oxo-1-piperidyl)propanoylamino]ethyl]-boronic acid] | 
15 | ++ (10 ≤ Selectivity < 30) | 50 to 500 | < 50 |  |  |  | O=C(CN1C(=O)CSC1=O)N[C@@H](Cc1coc2ccccc12)B(O)O [Compound 33, [(1R)-2-(benzofuran-3-yl)-1-[[2-(2,4-dioxothiazolidin-3-yl)acetyl]-amino]ethyl]boronic acid] | 
16 |  |  |  |  |  |  | CC1=C(C(=O)N[C@H](C)C(=O)N[C@@H](Cc2c[nH]c3ccccc23)C(=O)N[C@@H](Cc2ccccc2)C(=O)[C@@]2(C)CO2)Cc2ccccc21 [PR-924] | 100
17 | ++ (10 ≤ Selectivity < 30) | 50 to 500 | < 50 |  |  |  | Cc1ccc(C[C@H](NC(=O)CCN2CCCCS2(=O)=O)B(O)O)cc1 [Compound 22, [(1R)-1-[3-(1,1-dioxothiazinan-2-yl)propanoylamino]-2-(p-tolyl)ethyl]-boronic acid] | 
18 |  |  |  | +++++ (Selectivity ≥ 70) | 500 to 5000 | < 50 | O=C(CCN1CCCC1=O)N[C@@H](C[C@@H]1COc2ccccc21)B(O)O [Compound 39, [(1R)-2-[(3S)-2,3-dihydrobenzofuran-3-yl]-1-[3-(2-oxopyrrolidin-1-yl)propanoylamino]ethyl]boronic acid] | 
19 | +++++ (Selectivity ≥ 70) | 500 to 5000 | < 50 |  |  |  | Cc1ccc(C[C@H](NC(=O)CCN2CCCCC2=O)B(O)O)c(C)c1 [Compound 31, [(1R)-2-(2,4-dimethylphenyl)-1-[3-(2-oxo-1-piperidyl)propanoylamino]-ethyl]boronic acid] | 

Reference: patent US10640520B2, “Boronic acid derivatives” (MERCK PATENT GMBH, priority 2014, dated 2020)
